Assay results: PubChem BioAssay (NCI)
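The concentration for 50% growth inhibition is given as GI50. At the TGI there is no net growth.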

Tests used:
Assay in all cases: NCI-60 cell line screen, 384-well format
SK-MEL-28 melanoma = tested on: SK-MEL-28 melanoma
NCI-H522 lung = tested on: NCI-H522 lung
IGROV1 ovarian = tested on: IGROV1 ovarian
SNB-75 CNS = tested on: SNB-75 CNS
NCI-H322M lung = tested on: NCI-H322M lung
RXF 393 renal = tested on: RXF 393 renal
BT-549 breast = tested on: BT-549 breast
UACC-62 melanoma = tested on: UACC-62 melanoma
SF-539 CNS = tested on: SF-539 CNS
MDA-MB-468 breast = tested on: MDA-MB-468 breast
OVCAR-5 ovarian = tested on: OVCAR-5 ovarian
HT29 colon = tested on: HT29 colon
M14 melanoma = tested on: M14 melanoma
NCI/ADR-RES ovarian = tested on: NCI/ADR-RES ovarian
MCF7 breast = tested on: MCF7 breast
OVCAR-3 ovarian = tested on: OVCAR-3 ovarian
T-47D breast = tested on: T-47D breast
UACC-257 melanoma = tested on: UACC-257 melanoma
DU-145 prostate = tested on: DU-145 prostate
U251 glioblastoma = tested on: U251 glioblastoma
A549 NSCLC = tested on: A549 NSCLC
SF-295 CNS = tested on: SF-295 CNS
MDA-MB-435 melanoma = tested on: MDA-MB-435 melanoma
NCI-H226 lung = tested on: NCI-H226 lung
LOX IMVI melanoma = tested on: LOX IMVI melanoma
MOLT-4 leukemia = tested on: MOLT-4 leukemia
TK-10 renal = tested on: TK-10 renal
786-0 renal = tested on: 786-0 renal
PC-3 prostate = tested on: PC-3 prostate
HCC-2998 colon = tested on: HCC-2998 colon
ACHN renal = tested on: ACHN renal
EKVX NSCLC = tested on: EKVX NSCLC
OVCAR-8 ovarian = tested on: OVCAR-8 ovarian
KM12 colon = tested on: KM12 colon
UO-31 renal = tested on: UO-31 renal
NCI-H460 NSCLC = tested on: NCI-H460 NSCLC
OVCAR-4 ovarian = tested on: OVCAR-4 ovarian
SK-MEL-5 melanoma = tested on: SK-MEL-5 melanoma
NCI-H23 lung = tested on: NCI-H23 lung
HCT-116 colon = tested on: HCT-116 colon
SF-268 CNS = tested on: SF-268 CNS
A498 renal = tested on: A498 renal
HS 578T breast = tested on: HS 578T breast
K-562 leukemia = tested on: K-562 leukemia
HOP-62 NSCLC = tested on: HOP-62 NSCLC
SN12C renal = tested on: SN12C renal
CAKI-1 renal = tested on: CAKI-1 renal
SK-OV-3 ovarian = tested on: SK-OV-3 ovarian
HCT-15 colon = tested on: HCT-15 colon
MDA-MB-231 breast = tested on: MDA-MB-231 breast
SNB-19 CNS = tested on: SNB-19 CNS
SW-620 colon = tested on: SW-620 colon
CCRF-CEM leukemia = tested on: CCRF-CEM leukemia
COLO 205 colon = tested on: COLO 205 colon
SK-MEL-2 melanoma = tested on: SK-MEL-2 melanoma
MALME-3M melanoma = tested on: MALME-3M melanoma
RPMI-8226 leukemia = tested on: RPMI-8226 leukemia
HOP-92 NSCLC = tested on: HOP-92 NSCLC

`Cc1cc(C(=O)N[C@@H](CCC(=O)O)C(=O)O)sc1CC[C@@H]1CNc2nc(N)[nH]c(=O)c2C1` gave a GI50 (SK-MEL-28 melanoma) of 18.4 nM, a TGI (SK-MEL-28 melanoma) of 35.9 nM and a GI50 (NCI-H522 lung) of 12.7 nM. The TGI (NCI-H522 lung) was 28.5 nM, the GI50 (IGROV1 ovarian) was 19.9 nM and the TGI (IGROV1 ovarian) was 40 nM. The GI50 (SNB-75 CNS) was under 10 nM, the TGI (SNB-75 CNS) was under 10 nM and the GI50 (NCI-H322M lung) was 20.2 nM. It also gave a TGI (NCI-H322M lung) of 39.4 nM, a GI50 (RXF 393 renal) of under 10 nM and a TGI (RXF 393 renal) of 16.2 nM. For the same compound, the GI50 (BT-549 breast) was 18.3 nM, the TGI (BT-549 breast) was 35 nM and the GI50 (UACC-62 melanoma) was 21 nM. The TGI (UACC-62 melanoma) was 50.1 nM, the GI50 (SF-539 CNS) was under 10 nM and the TGI (SF-539 CNS) was 21 nM. The GI50 (MDA-MB-468 breast) was 19.4 nM, the TGI (MDA-MB-468 breast) was 41.6 nM and the GI50 (OVCAR-5 ovarian) was 10.1 nM. It also gave a TGI (OVCAR-5 ovarian) of 23.8 nM, a GI50 (HT29 colon) of 17.4 nM and a TGI (HT29 colon) of 37.2 nM. It also gave a GI50 (M14 melanoma) of under 10 nM, a TGI (M14 melanoma) of 20.1 nM and a GI50 (NCI/ADR-RES ovarian) of 20.1 nM. The TGI (NCI/ADR-RES ovarian) was 37.3 nM, the GI50 (MCF7 breast) was 15.7 nM and the TGI (MCF7 breast) was 37 nM. For the same compound, the GI50 (OVCAR-3 ovarian) was 19 nM, the TGI (OVCAR-3 ovarian) was 41.2 nM and the GI50 (T-47D breast) was 21.7 nM. It also gave a TGI (T-47D breast) of 60.1 nM, a GI50 (UACC-257 melanoma) of 10.2 nM and a TGI (UACC-257 melanoma) of 27.7 nM. It also gave a GI50 (DU-145 prostate) of under 10 nM, a TGI (DU-145 prostate) of under 10 nM and a GI50 (U251 glioblastoma) of under 10 nM. The TGI (U251 glioblastoma) was under 10 nM, the GI50 (A549 NSCLC) was 21.5 nM and the TGI (A549 NSCLC) was 46 nM. The GI50 (SF-295 CNS) was 19.4 nM, the TGI (SF-295 CNS) was 36.8 nM and the GI50 (MDA-MB-435 melanoma) was 18.5 nM. It also gave a TGI (MDA-MB-435 melanoma) of 36.4 nM, a GI50 (NCI-H226 lung) of 17.2 nM and a TGI (NCI-H226 lung) of 39.4 nM. The GI50 (LOX IMVI melanoma) was 20 nM, the TGI (LOX IMVI melanoma) was 40 nM and the GI50 (MOLT-4 leukemia) was under 10 nM. It also gave a TGI (MOLT-4 leukemia) of under 10 nM, a GI50 (TK-10 renal) of under 10 nM and a TGI (TK-10 renal) of under 10 nM. It also gave a GI50 ([…]-0 renal) of under 10 nM, a TGI (786-0 renal) of under 10 nM and a GI50 (PC-3 prostate) of under 10 nM. The TGI (PC-3 prostate) was under 10 nM, the GI50 (HCC-2998 colon) was 33.2 nM and the TGI (HCC-2998 colon) was 1030 nM. For the same compound, the GI50 (ACHN renal) was under 10 nM, the TGI (ACHN renal) was 22.5 nM and the GI50 (EKVX NSCLC) was 11.4 nM. The TGI (EKVX NSCLC) was 27.4 nM, the GI50 (OVCAR-8 ovarian) was 17 nM and the TGI (OVCAR-8 ovarian) was 34.6 nM. The GI50 (KM12 colon) was 28.5 nM, the TGI (KM12 colon) was 72.7 nM and the GI50 (UO-31 renal) was under 10 nM. The TGI (UO-31 renal) was 11.6 nM, the GI50 (NCI-H460 NSCLC) was under 10 nM and the TGI (NCI-H460 NSCLC) was 82.7 nM. It also gave a GI50 (OVCAR-4 ovarian) of 20.6 nM, a TGI (OVCAR-4 ovarian) of 43.5 nM and a GI50 (SK-MEL-5 melanoma) of 30.5 nM. For the same compound, the TGI (SK-MEL-5 melanoma) was 135 nM, the GI50 (NCI-H23 lung) was 39.2 nM and the TGI (NCI-H23 lung) was 157 nM. For the same compound, the GI50 (HCT-116 colon) was under 10 nM, the TGI (HCT-116 colon) was 24 nM and the GI50 (SF-268 CNS) was under 10 nM. It also gave a TGI (SF-268 CNS) of 20.8 nM, a GI50 (A498 renal) of under 10 nM and a TGI (A498 renal) of 14.9 nM. It also gave a GI50 (HS 578T breast) of 15.8 nM, a TGI (HS 578T breast) of 38.2 nM and a GI50 (K-562 leukemia) of under 10 nM. It also gave a TGI (K-562 leukemia) of under 10 nM, a GI50 (HOP-62 NSCLC) of 17.9 nM and a TGI (HOP-62 NSCLC) of 37.8 nM. It also gave a GI50 (SN12C renal) of under 10 nM, a TGI (SN12C renal) of under 10 nM and a GI50 (CAKI-1 renal) of under 10 nM. The TGI (CAKI-1 renal) was under 10 nM, the GI50 (SK-OV-3 ovarian) was under 10 nM and the TGI (SK-OV-3 ovarian) was 24.5 nM. For the same compound, the GI50 (HCT-15 colon) was 25 nM, the TGI (HCT-15 colon) was 57.8 nM and the GI50 (MDA-MB-231 breast) was 345 nM. For the same compound, the TGI (MDA-MB-231 breast) was 1200 nM, the GI50 (SNB-19 CNS) was under 10 nM and the TGI (SNB-19 CNS) was 23.1 nM. The GI50 (SW-620 colon) was 12.4 nM, the TGI (SW-620 colon) was 30.1 nM and the GI50 (CCRF-CEM leukemia) was under 10 nM. For the same compound, the TGI (CCRF-CEM leukemia) was under 10 nM, the GI50 (COLO 205 colon) was 25.4 nM and the TGI (COLO 205 colon) was 56.1 nM. For the same compound, the GI50 (SK-MEL-2 melanoma) was under 10 nM, the TGI (SK-MEL-2 melanoma) was 14.7 nM and the GI50 (MALME-3M melanoma) was 20 nM. It also gave a TGI (MALME-3M melanoma) of 37.2 nM, a GI50 (RPMI-8226 leukemia) of 18.2 nM and a TGI (RPMI-8226 leukemia) of 36.3 nM. For the same compound, the GI50 (HOP-92 NSCLC) was under 10 nM and the TGI (HOP-92 NSCLC) was under 10 nM.
